# Measurements: patent US11447523B2, “Methods for reducing CD36 expression” (Cornell Research Foundation, Inc., priority 2005, dated 2022)
# Entries after “also recorded” stand apart in the source; their conditions may differ. Square brackets hold non-standard residues; d marks the D form. Ends that are not written are not given here.
# Experiments:
# CD36 [1] = experiment: oxLDL-induced CD36 mRNA expression in mouse peritoneal macrophages; type: cell-based
# Experimental: CD36 expression is regulated at the transcriptional level by various cellular stimuli, including glucose and oxLDL. Macrophages were harvested from mice peritoneal cavity and culture overnight in the absence or presence of oxLDL (50 μg/ml) for 48 h.
# [2] = tested on: obstructed kidney after UUO; experiment: Kidney damage after unilateral ureteral obstruction (HNE, TUNEL, ED1 macrophages, Masson's trichrome); type: in vivo, Sprague-Dawley rats; details: rats, SS-31 1 mg/kg ip one day before UUO and daily for 14 days
# Experimental: Rats were then killed, kidneys removed, embedded in paraffin and sectioned. Slides were incubated with anti-HNE rabbit IgG and a biotin-linked anti-rabbit IgG was used as secondary antibody. The slides were developed with DAB. Lipid peroxidation, which was increased by UUO, was reduced by SS-31 treatment (FIG. 8).
# Rats were then killed, kidneys removed, embedded in paraffin and sectioned. To quantitate nuclei with fragmented DNA, the TUNEL assay were performed with in situ TUNEL kit (Intergen, Purchase, N.Y.). Slides were developed with DAB and counterstained with 10% hematoxylin.
# Rats were treated with either saline (n=6) or SS-31 (1 mg/kg ip, n=6) one day prior to induction of UUO, and once a day for 14 days after UUO. Rats were then killed, kidneys removed, embedded in paraffin and sectioned. Slides were treated with monoclonal antibody for ED1 macrophage (1:75; Serotec). Horseradish-peroxidase-linked rabbit anti-mouse secondary antibody (Dako) was used for macrophage detection. Sections were then counterstained with 10% hematoxylin.
# Rats were treated with either saline (n=6) or SS-31 (1 mg/kg ip, n=6) one day prior to induction of UUO, and once a day for 14 days after UUO. Rats were then killed, kidneys removed, embedded in paraffin and sectioned. Slides were stained with hematoxylin and eosin and Masson's trichome for interstitial fibrosis (blue stain).
# [3] = tested on: CD36 knock-out mice subjected to acute cerebral ischemia; experiment: Acute cerebral ischemia in CD36 knockout mice; type: in vivo, mouse; details: CD36 KO mice
# Experimental: CD36 knockout (CD36 KO) mice were subjected to acute cerebral ischemia as described under Example 2. CD36 KO mice were given either saline vehicle (Veh) (ip, n=5) or SS-31 (2 mg/kg, i.p. n=5) at 0, 6, 24 and 48 h after 30 min ischemia.
# CD36 [4] = experiment: CD36 protein expression by western blot in mouse peritoneal macrophages; type: cell-based; details: P<0.01
# Text: Other controls included CD36 expression from mouse heart (H) and macrophages obtained from CD36 knockout mice (KO). The amount of CD36 protein was normalized to β-actin.
# diabetic mice = experiment: Streptozotocin (STZ)-induced diabetic mice, renal damage; type: in vivo, CD-1 mice
# Experimental: Streptozotocin (STZ) was used to induce diabetes in mice. Three groups of CD-1 mice were studied. Group I—no STZ treatment; Group II—STZ (50 mg/kg, ip) was given once a day for 5 d; Group III—STZ (50 mg/kg, ip) was given once a day for 5 d, and SS-31 (3 mg/kg, ip) was given once a day for 16 d. […] By week 3, blood glucose values were: Group I (10.6.noteq.0.27 mmol/L); Group II (24.5.noteq.1.15 mmol/L); Group III (21.3 1.48 mmol/L). Animals were sacrificed after 3 weeks and kidney tissues preserved for histopathology. Kidney sections were examined by Periodic Schiff (PAS) staining for renal tubular brush border.
# In mice not treated with STZ, the renal brush border in the cortex was stained red with PAS (FIG. 16A, see white arrows).
# Kidney sections were examined for apoptosis using the TUNEL assay. After deparaffinization, sections were incubated with deoxynucleotidyl transferase (Tdt) with digoxigenin-dNTP for 1 hour. The reaction was stopped with terminating buffer. A fluorescent anti-digoxigenin antibody was then applied.
# [5] = tested on: wild-type mice subjected to acute cerebral ischemia; experiment: Acute cerebral ischemia (30 min middle cerebral artery occlusion) in wild-type mice; type: in vivo, mouse; details: WT mice
# Experimental: Cerebral ischemia was induced by occlusion of the right middle cerebral artery for 30 min. Wild-type (WT) mice were given either saline vehicle (Veh) (ip, n=19) or SS-31 (2 mg/kg or 5 mg/kg, ip, n=6) at 0, 6, 24 and 48 h after ischemia. Mice were killed 3 days after ischemia. Brains were removed, frozen, and sectioned. Brain sections were stained by the Nissl stain. Infarct volume and hemispheric swelling was determined using an image analyzer. Data were analyzed by one-way ANOVA with posthoc analysis.
# (*P<0.05 compared to Veh).
# CD36 [6] = experiment: CD36 mRNA (real time PCR) in post-ischemic brain of wild-type mice; type: in vivo, mouse; details: WT mice, SS-31 5 mg/kg ip at 0 and 6 h after 30 min ischemia
# Experimental: Wild-type mice were given saline vehicle (Veh, i.p., n=6) or SS-31 (5 mg/kg, i.p., n=6) at 0 and 6 h after 30 min ischemia, and CD36 mRNA levels were determined using real time PCR.
# CD36 [7] = experiment: CD36 immunostaining in isolated hearts after cold ischemic storage and warm reperfusion; design: species or system guinea pig; details: 1 nM SS-31 or 100 nM SS-20 in St. Thomas solution, 18 h at 4° C., 90 min reperfusion at 34° C.
# Experimental: Isolated guinea pig hearts were perfused with St. Thomas solution alone, or St. Thomas solution containing 1 nM SS-31 or 100 nM SS-20, for 3 min. and then stored in the same solution at 4° C. for 18 hours. After ischemic storage, hearts were reperfused with 34° C. Kreb-Henseleit solution for 90 min. Hearts freshly isolated from guinea pigs were used as controls.
# The hearts were fixed in paraffin and sliced for immunostaining with an anti-CD36 rabbit polyclonal antibody. Two sections are shown for each treatment group. […] The “background” (FIGS. 12A and 12B) represents two sections from a normal non-ischemic heart that was not treated with the primary antibody. “Normal heart” (FIGS. 12C and 12D) represents two sections obtained from a non-ischemic heart.
# [8] = tested on: mouse peritoneal macrophages; experiment: oxLDL-induced apoptosis of macrophages; type: cell-based; details: SS-31 1 nM concurrent with oxLDL (oxLDL alone 32.8%, no oxLDL 6.7%)
# Experimental: Incubation of macrophages with oxLDL increased apoptotic cells from 6.7% to 32.8%.
# CD36 [9] = experiment: CD36 immunostaining on renal tubular cells after unilateral ureteral obstruction (UUO); type: in vivo, Sprague-Dawley rats; details: rats, SS-31 1 mg/kg ip one day before UUO and daily for 14 days
# Experimental: UUO was performed in Sprague-Dawley rats. The rats were treated with saline (ip, n=6) or SS-31 (1 mg/kg ip, n=6) one day prior to induction of UUO, and once a day for 14 days after UUO. Rats were killed, kidneys removed, embedded in paraffin and sectioned. The slides were treated with the anti-CD36 polyclonal IgG (Santa Cruz #sc-9154; 1:100 with blocking serum) at room temperature for 1.5 hours. The slides were then incubated with the second antibody conjugated with biotin (anti-rabbit IgG-G1; ABC kit, PK-6101) at room temperature for 30 min. The slides were then treated with avidin, developed with DAB and counterstained with 10% hematoxylin. The contralateral unobstructed kidney served as the control for each animal.
# [10] = tested on: mouse peritoneal macrophages; experiment: oxLDL-induced foam cell formation (oil red O) in macrophages; type: cell-based; details: SS-31 1 μM, oxLDL 48 h
# Text: Foam cell is indicated by oil red O which stains lipid droplets red.
# [11] = tested on: isolated guinea pig hearts; experiment: Isolated hearts: lipid peroxidation, endothelial apoptosis and coronary flow after cold ischemia and warm reperfusion; details: 1 nM SS-31 or 100 nM SS-20 in St. Thomas solution; for HNE staining (lipid peroxidation) in stored hearts / endothelial apoptosis in stored hearts / coronary flow restored, of pre-ischemic flow: 18 h at 4° C., 90 min reperfusion; for coronary flow restored, of pre-ischemic flow: pre-ischemic control = 100%; for coronary flow (in words): 18 h cold ischemia, warm reperfusion
# Experimental: Guinea pig hearts were perfused with a cardioplegic solution (St. Thomas solution) alone or St. Thomas solution containing either 1 nM SS-31 or 100 nM SS-20 for 3 min. and then subjected to 18 hours of cold ischemia (4° C.). The hearts were then reperfused with Krebs Henseleit buffer at 34° C. for 90 min. Immunohistochemical analysis of 4-hydroxynonenol (HNE)-modified proteins in paraffin sections from tissue slices were performed by incubation with an anti-HNE antibody (Santa Cruz) and a fluorescent secondary antibody. […] HNE staining was reduced in hearts stored in SS-31 (FIG. 13C) or SS-20 (FIG. 13D).
# Guinea pig heats were perfused with a cardioplegic solution (St. Thomas solution) alone or St. Thomas solution containing either 1 nM SS-31 or 100 nM SS-20 for 3 min. and then subjected to 18 hours of cold ischemia (4° C.). The hearts were then reperfused with Krebs Henseleit buffer at 34° C. for 90 min. After deparaffinization, sections were incubated with deoxynucleotidyl transferase (Tdt) with digoxigenin-dNTP for 1 hour. The reaction was stopped with terminating buffer. A fluorescent anti-digoxigenin antibody was then applied.
# A significant improvement of coronary blood flow after prolonged cold ischemic storage and warm reperfusion occurred (FIG. 15). Guinea pigs hearts were perfused with a cardioplegic solution (St. Thomas solution) alone or St. Thomas solution containing either 1 nM SS-31 (FIG. 15A) or 100 nM SS-20) (FIG. 15B) for 3 min. and then subjected to 18 hours of cold ischemia (4° C.). The hearts were then reperfused with Krebs Henseleit buffer at 34° C. for 90 min.
# [12] = SS-31 2 mg/kg ip at 0, 6, 24, 48 h, vs saline
# [13] = SS-31 2 mg/kg or 5 mg/kg ip at 0, 6, 24, 48 h after ischemia, vs saline, P<0.05
substance,measurement,setting,value
D-Arg-2′6′Dmt-Lys-Phe-NH2 [SS-31],oxLDL-induced up-regulation of CD36 mRNA,"CD36 [1]; SS-31 10 nM or 1 μM, oxLDL 50 μg/ml, 48 h",abolished the up-regulation of CD36; also recorded: reduced oxLDL-induced CD36 mRNA expression
same,"CD36 expression, peptide by itself","CD36 [1]; SS-31 alone, without oxLDL",had no effect on CD36 expression
same,tubular dilation,[2],Tubular dilation was also observed
same,number of apoptotic cells (TUNEL) in obstructed kidney,"[2]; P<0.001, 1 mg/kg",significantly reduced; also recorded: reduced tubular cell apoptosis
same,interstitial fibrosis in obstructed kidney,"[2]; P<0.05, 1 mg/kg",significantly less fibrosis; also recorded: reduced interstitial fibrosis
same,macrophage infiltration (ED1) in obstructed kidney,"[2]; P<0.05, 1 mg/kg",significantly reduced; also recorded: reduced macrophage infiltration
same,lipid peroxidation (HNE stain) in obstructed kidney,"[2]; vs saline, 1 mg/kg",significantly less HNE stain; also recorded: reduces lipid peroxidation
same,GSH depletion in the ipsilateral cortex,[3]; SS-31 2 mg/kg ip,failed to further prevent GSH depletion; also recorded: did not reduce GSH depletion
same,hemispheric swelling,[3]; [12],no effect
same,infarct volume,[3]; [12],no effect in reducing infarct volume
same,oxLDL-induced upregulation of CD36 protein expression,"CD36 [4]; SS-31 1 μM concurrent with 25 μg/ml oxLDL, 48 h",significantly inhibited the upregulation of CD36 protein expression; also recorded: reduced
same,CD36 protein expression versus vehicle control,"CD36 [4]; SS-31 1 μM, no oxLDL, normalized to β-actin",significantly reduced CD36 protein expression
same,blood glucose by week 3,"diabetic mice; Group III: STZ 50 mg/kg ip 5 d + SS-31 3 mg/kg ip daily 16 d (STZ alone 24.5, no STZ 10.6)",21.3 mmol/L
same,effect on blood glucose (in words),"diabetic mice; STZ mice, SS-31 3 mg/kg ip daily",without affecting blood glucose
same,architecture of the proximal renal tubules,"diabetic mice; STZ mice, SS-31 3 mg/kg ip daily, 3 weeks",architecture of the proximal renal tubules was preserved
same,apoptotic cells in proximal tubule (TUNEL),"diabetic mice; STZ mice, SS-31 3 mg/kg ip daily, 3 weeks, 3 mg/kg",dramatically reduced apoptotic cells in the proximal tubule; also recorded: inhibit tubular cell apoptosis; also recorded: significantly reduced
same,depletion of GSH in the striatum,"[5]; SS-31 2 mg/kg ip at 0, 6, 24, 48 h",reduced by SS-31 treatment but did not reach statistical significance
same,depletion of GSH in the ipsilateral cortex,"[5]; SS-31 2 mg/kg ip at 0, 6, 24, 48 h, 2 mg/kg",significantly reduced; also recorded: reduced the decrease in reduced glutathione (GSH)
same,hemispheric swelling,[5]; [13],significant reduction; also recorded: reduced
same,infarct volume,[5]; [13],significant reduction in infarct volume; also recorded: reduced infarct volume
same,CD36 mRNA in the ipsilateral brain,CD36 [6],significantly reduced; also recorded: reduced CD36 mRNA expression
same,CD36 staining in stored hearts,CD36 [7],significantly reduced; also recorded: did not show the upregulation of CD36 expression
same,percentage of apoptotic cells induced by oxLDL,[8],20.8%
same,CD36 expression on tubular cells of obstructed kidney,CD36 [9],significant reduction in CD36 expression; also recorded: suppresses the upregulation of CD36; also recorded: decreases CD36 expression
same,oxLDL-induced foam cell formation,[10],prevented oxLDL-induced foam cell formation; also recorded: reduced
same,HNE staining (lipid peroxidation) in stored hearts,[11],reduced
same,endothelial apoptosis in stored hearts,[11],Apoptotic cells were not observed
same,"coronary flow restored, of pre-ischemic flow",[11],approximately 80%
same,coronary flow (in words),[11],preserves coronary flow
F[dR]FK-NH2 [SS-20],CD36 staining in stored hearts,CD36 [7],significantly reduced; also recorded: did not show the upregulation of CD36 expression
same,HNE staining (lipid peroxidation) in stored hearts,[11],reduced
same,endothelial apoptosis in stored hearts,[11],Apoptotic cells were not observed
same,"coronary flow restored, of pre-ischemic flow",[11],approximately 80%
same,coronary flow (in words),[11],preserves coronary flow
